This is an account of results in paper PMC12332266 (Frontiers in Pharmacology, 2025).

The conditions of data set [1]: ref extensive literature search, cited from earlier work.
Data set [2] relates to hiPSC-CM (iCell Cardiomyocytes^2). In words: RTCA CardioECR assessment (impedance and electrophysiology parameters). On the procedure:
(§1) Culture media change was performed every 2 days.
After seeding on fibronectin-coated xCELLigence ePlates (Agilent Technologies, Inc. Santa Clara, CA, USA), iCell^2 CM were monitored continuously through impedance electrodes. The following impedance parameters were measured: Cell Index (CI, measure of cell “health” and monolayer integrity), beating rate (BR) and amplitude (CI Amplitude, magnitude of contraction). Electrophysiology-like parameters (Field Potential Duration (FPD), considered as a surrogate for QT in in vivo studies, and Spike Amplitude (SA), depolarization induced by Na^+ channel opening) were measured starting from day 4–6, following the monolayer formation. […] All RTCA CardioECR data were double normalized (DMSO control and the baseline) with no further statistical group comparison for the normalized parameters. The variability of the data within the treatment groups was assessed by standard deviation.

For data set [3] the test system is unchanged. As to the kind of experiment: Intracellular miRNA expression by RT-qPCR in hiPSC-CM pellets after 72-hour treatment. On the procedure: as §1
Total RNA was extracted from hiPSC-CM using the miRNeasy 96 Kit (Qiagen, Hilden, Germany) following the manufacturer’s recommendations. After the extraction, RNA purity was assessed by NanoDrop™ 8000 Spectrophotometer (Thermo Fisher Scientific Inc.). 5–10 ng/μL of RNA per sample were reverse transcribed and pre-amplified by using the TaqMan™ Advanced miRNA cDNA Synthesis Kit (Thermo Fisher Scientific Inc.). The synthesized cDNA was used for RT-qPCR with selected TaqMan™ assays (Thermo Fischer Scientific Inc.). RT-qPCR was carried out following the Applied Biosciences TaqMan miRNA expression assay protocol on a ViiA7 instrument (Thermo Fisher Scientific, Inc.). […] Therefore, to maximize the number of drugs and concentrations, explored in the same study, we pooled the triplicates for intracellular profiling of miRNAs. Therefore, no statistical analysis was performed on the data of miRNA profiling in the pellets of hiPSC-CM.
Following RTCA CardioECR assessment, hiPSC-CM cell pellets were collected, and total RNA was extracted and purified to investigate miRNAs upregulation by RT-qPCR. […] For the initial assessment of intracellular miRNAs in 12 different treatments, encompassing various drug classes, we used a panel of 17 miRNAs, which we selected from the publicly available data focusing mainly on in vitro models and structural cardiotoxicants (Supplementary Table S2).

Like-named read-outs stand apart in the source and are kept apart here.

For `Cc1nc(Nc2ncc(C(=O)Nc3c(C)cccc3Cl)s2)cc(N2CCN(CCO)CC2)n1` [Dasatinib], the Cmax total in data set [1] (Supplementary Table 1) is reported as 0.97 µM. Further, the Cmax total in data set [1] (Table 1) is listed as 0.97 µM. In addition, in data set [2] (hiPSC-CM, 72-hour treatment, lowest concentration causing at least 20% change from baseline), the “Cell index (CI) MEC” value stood at 1 µM. Besides, the “RTCA, MEC (CI)” value in data set [2] (hiPSC-CM, change ≥20%, Table 2) was 1 µM. In data set [2] (human, 72 h), the “Beating Rate MEC” value was found to be 0.3 µM, the “Beating rate (BR) MEC” value was determined as 0.3 µM, the “Cell Index MEC” value stood at 1 µM and the “Contractility Amplitude MEC” value is reported as 10 µM. Besides, in data set [2] (human, 72 h), the “RTCA, MEC (BR)” value came out at 0.3 µM and the “Spike Amplitude (SA) MEC” value is recorded as 0.3 µM. Further, in data set [3], the “miRNAs hiPSC-CM pellet, MEC overall” value was found to be 0.3 µM and the “miRNAs upregulated at the MEC overall (hiPSC-CM pellet)” value (“miRNAs upregulated at the MEC overall” below) was “miR-96-5p, miR-133b, miR-182-5p, miR-185-3p, miR-365a-5p”. Moreover, in data set [3] (0.3 µM, 72 h), the “hsa-miR-7-5p fold change, intracellular” value was 1.4; the “hsa-miR-96-5p fold change, intracellular” value turned out to be 9.0; the “hsa-miR-126-3p fold change, intracellular” value (shortened to “hsa-miR-126-3p fold change”) worked out at 1.6; the “hsa-miR-133b fold change, intracellular” value stood at 2.7. In data set [3] (0.3 µM, 72 h), the “hsa-miR-146b-5p fold change, intracellular” value (from here on “hsa-miR-146b-5p fold change”) was 0.8; the “hsa-miR-182-5p fold change, intracellular” value (from here on “hsa-miR-182-5p fold change”) was 2.5; the “hsa-miR-185-3p fold change, intracellular” value (“hsa-miR-185-3p fold change” for short) is reported as 6.4; the “hsa-miR-187-3p fold change, intracellular” value (“hsa-miR-187-3p fold change” for short) is reported as 1.7. Further, in data set [3] (0.3 µM, 72 h), the “hsa-miR-208b-3p fold change, intracellular” value (“hsa-miR-208b-3p fold change” for short) is recorded as 1.2; the “hsa-miR-365a-5p fold change, intracellular” value (from here on “hsa-miR-365a-5p fold change”) turned out to be 5.4; the “hsa-miR-[…] change, intracellular” value worked out at 0.8. Moreover, in data set [3] (1 µM, 72 h), the “hsa-miR-7-5p fold change, intracellular” value worked out at 0.8; the “hsa-miR-29a-5p fold change, intracellular” value (from here on “hsa-miR-29a-5p fold change”) turned out to be 3.6; the “hsa-miR-96-5p fold change, intracellular” value is listed as 4.7; the “hsa-miR-126-3p fold change” value is 2.1. In data set [3] (1 µM, 72 h), the “hsa-miR-133b fold change, intracellular” value turned out to be 1.6; the “hsa-miR-146b-5p fold change” value is recorded as 0.9; the “hsa-miR-182-5p fold change” value was 0.9; the “hsa-miR-185-3p fold change” value was 1.5. In addition, in data set [3] (1 µM, 72 h), the “hsa-miR-187-3p fold change” value is given as 0.5; the “hsa-miR-208b-3p fold change” value worked out at 1.2; the “hsa-miR-365a-5p fold change” value worked out at 0.8; the “hsa-miR-[…] change, intracellular” value came out at 0.8. For the same compound, in data set [3] (3 µM, 72 h), the “hsa-miR-7-5p fold change, intracellular” value was 0.9; the “hsa-miR-29a-5p fold change” value is 4.0; the “hsa-miR-126-3p fold change” value worked out at 1.1; the “hsa-miR-133b fold change, intracellular” value is 3.3. Besides, in data set [3] (3 µM, 72 h), the “hsa-miR-146b-5p fold change” value amounted to 6.4; the “hsa-miR-182-5p fold change” value was determined as 0.8; the “hsa-miR-185-3p fold change” value came to 7.9; the “hsa-miR-187-3p fold change” value turned out to be 1.4. In data set [3] (3 µM, 72 h), the “hsa-miR-208b-3p fold change” value was found to be 1.2; the “hsa-miR-365a-5p fold change” value turned out to be 0.7; the “hsa-miR-[…] change, intracellular” value is 0.8. Besides, in data set [3] (10 µM, 72 h), the “hsa-miR-7-5p fold change, intracellular” value came to 0.5; the “hsa-miR-29a-5p fold change” value was 7.4; the “hsa-miR-96-5p fold change, intracellular” value is listed as 0.5; the “hsa-miR-126-3p fold change” value amounted to 1.8. Also, in data set [3] (10 µM, 72 h), the “hsa-miR-133b fold change, intracellular” value was 1.1; the “hsa-miR-146b-5p fold change” value was 0.4; the “hsa-miR-182-5p fold change” value is 0.4; the “hsa-miR-185-3p fold change” value was determined as 3.3. In data set [3] (10 µM, 72 h), the “hsa-miR-187-3p fold change” value worked out at 0.6; the “hsa-miR-208b-3p fold change” value was 1.6; the “hsa-miR-365a-5p fold change” value was determined as 3.9; the “hsa-miR-[…] change, intracellular” value came to 0.7.

As for `COc1cccc2c1C(=O)c1c(O)c3c(c(O)c1C2=O)C[C@@](O)(C(C)=O)C[C@@H]3O[C@H]1C[C@H](N)[C@H](O)[C@H](C)O1` [Daunorubicin], the Cmax total in data set [1] (Supplementary Table 1) was 0.310 to 7.84 µM. In addition, the Cmax total in data set [1] (Table 1) is 0.31 to 7.84 µM. Moreover, in data set [2] (human), the “RTCA, MEC (CI)” value was 0.1 µM (CI, BR). For the same compound, in data set [2] (human, 72 h), the “Beating Rate MEC” value was 0.1µM (+21%), the “Beating rate (BR) MEC” value is listed as 0.1 (+21%) µM, the “Contractility Amplitude MEC” value was 0.3µM (-82%) and the “Field Potential Duration MEC” value is 0.1 µM. Also, in data set [2] (human, 72 h), the “RTCA, MEC (BR)” value is on record as 0.1 µM (CI, BR) and the “Spike Amplitude (SA) MEC” value was 0.1µM (-93%). Further, in data set [3], the “miRNAs hiPSC-CM pellet, MEC overall” value is on record as 0.1 µM and the “miRNAs upregulated at the MEC overall” value is listed as “miR-96 -5p, miR-185-3p, miR-187-3p, miR-365a-5p”.

With `COc1cccc2c1C(=O)c1c(O)c3c(c(O)c1C2=O)C[C@@](O)(C(=O)CO)C[C@@H]3O[C@H]1C[C@H](N)[C@@H](O)[C@H](C)O1` [Epirubicin], the Cmax total in data set [1] (Supplementary Table 1) is recorded as 16.6 µM. In addition, in data set [1] (Table 1), the Cmax total is listed as 16.60 µM. For the same compound, the “RTCA, MEC (CI)” value in data set [2] (hiPSC-CM, change ≥20%, Table 2) is listed as 0.3 µM (CI, BR (Q)). Further, in data set [2] (human, 72 h), the “Beating Rate MEC” value is reported as 0.3 µM, the “Beating rate (BR) MEC” value was 0.3 µM, the “Contractility Amplitude MEC” value was 0.3 µM and the “Field Potential Duration MEC” value is reported as 0.3 µM. Moreover, in data set [2] (human, 72 h), the “RTCA, MEC (BR)” value is given as 0.3 µM (CI, BR (Q)) and the “Spike Amplitude (SA) MEC” value was 0.3 µM. Moreover, in data set [3], the “miRNAs hiPSC-CM pellet, MEC overall” value amounted to 0.3 µM and the “miRNAs upregulated at the MEC overall” value is on record as “miR-7-5p, miR-29a-5p, miR-126-3p, miR-146b-5p, miR-182-5p, miR-184, miR-185-3p, miR-187-3p, miR-208b-3p, miR-365a-5p”.

`C#Cc1cccc(Nc2ncnc3cc(OCCOC)c(OCCOC)cc23)c1` [Erlotinib]: in data set [1] (Supplementary Table 1), the Cmax total was 3.15 to 4.8 µM. In addition, the Cmax total in data set [1] (Table 1) is 3.15 to 4.80 µM. Besides, in data set [2] (human, 72 h), the “Beating Rate MEC” value worked out at 0.77 µM; the “Beating rate (BR) MEC” value is 0.77 µM; the “RTCA, MEC (BR)” value is listed as 0.77 µM (BR); the “Spike Amplitude (SA) MEC” value came out at 0.23 µM. Besides, in data set [3], the “miRNAs hiPSC-CM pellet, MEC overall” value is given as 0.23 µM and the “miRNAs upregulated at the MEC overall” value was “miR-1-3p, miR-21-5p, miR-34a-5p, miR-208b-3p”. Further, the “intracellular miRNA upregulation in hiPSC-CM, in words” value in data set [3] (human, 72 h) was “upregulation of three miRNAs (hsa-miR-146b-5p, hsa-miR-182-5p, hsa-miR-365a-5p)”.

On to `COc1cc([C@@H]2c3cc4c(cc3[C@@H](O[C@@H]3O[C@@H]5CO[C@@H](C)O[C@H]5[C@H](O)[C@H]3O)[C@H]3COC(=O)[C@H]23)OCO4)cc(OC)c1O` [Etoposide], for which, in data set [1] (Supplementary Table 1), the Cmax total is reported as 33.4 µM. For the same compound, the Cmax total in data set [1] (Table 1) is listed as 33.40 µM. Also, in data set [2] (human, 72 h), the “Field Potential Duration MEC” value was found to be 3 µM and the “Spike Amplitude (SA) MEC” value is 0.3 µM. In addition, in data set [3], the “miRNAs hiPSC-CM pellet, MEC overall” value is listed as 0.1 µM and the “miRNAs upregulated at the MEC overall” value is given as “miR-187-3p”.
